In US7528175B2, “Method of treating airway diseases with beta-adrenergic inverse agonists” (Inverseon, Inc., priority 2005, dated 2009):
“Also recorded” adds a separate entry of the source. Where two headings read alike, the source gives them in different places.

Key:
asthmatic mice [1] = test: Airway resistance (Raw) response to methacholine in murine model of asthma (forced oscillation); format: in vivo, Balb/cJ mice
Experimental: Balb/cJ mice aged 6 weeks (Jackson Animal Laboratory, Bar Harbor, Me.) were housed under specific pathogen-free conditions and fed a chicken ovalbumin-free diet. The Animal Research Ethics Boards of both the University of Houston and the Baylor College of Medicine approved all experiments reported here. […] Mice were sensitized with subcutaneous injection of 25 μg of ovalbumin adsorbed to aluminum hydroxide on protocol days 2, 9, and 16. Subsequently, mice were given 50 μL of saline solution containing 25 μg of ovalbumin intranasally, on a daily basis, from protocol days 23 through 27. A group of ovalbumin-sensitized saline-challenged mice serves as controls for systemic sensitization and respiratory challenges with ovalbumin. Prior to intranasal administrations, mice were sedated with halothane vapor.
To examine the effects of duration of β-adrenergic ligand therapy on the phenotype of the murine model of asthma, the experimental drugs were administered either acutely or chronically to different groups of asthmatic mice.
Asthmatic mice on acute therapy were given a single intravenous bolus infusion of either β-adrenergic drug or normal saline on protocol day 28, 15 minutes before airway responsiveness to methacholine was determined. […] […] […] These concentrations were chosen based on those producing therapeutic effects in mice in previously published studies. The non-asthmatic mice were fed normal chow.
On protocol day 28, mice were anesthetized, tracheotomized, and connected to a computer-controlled small animal ventilator (Flexivent, Scientific Respiratory Equipment, Inc., Montreal, Canada). Airway resistance (Raw) was measured using the forced oscillation technique. The cellular composition of bronchoalveolar lavage fluid (BALF) was also determined.
To induce airway constriction, a solution containing 150 μg/mL of acetyl-α-methylcholine chloride (methacholine) (Sigma Chemical, St. Louis, Mo.) was infused intravenously at constant rates using a syringe infusion pump (Raze Scientific Instruments, Stanford, Conn.). […] Each methacholine dose was administered for 3 to 5 minutes, during which data were sampled at 1-minute intervals and then averaged.
The complex input impedance of the respiratory system was computed and the value of the real part of respiratory system impedance at 19.75 Hz was taken to reflect the magnitude of airway resistance (Raw). To examine the degree of airway responsiveness of each animal, the values for Raw as a function of methacholine doses were plotted. The largest value for Raw achieved in response to methacholine stimulation was referred to as Rawpeak. For mice that achieved a plateau in the methacholine dose-Raw response curve, the ED50 was calculated by linear interpolation using the GraphPad Prism4 (GraphPad Software, Inc.). […] The Bonferroni test was used to examine the statistical differences between experimental groups. The effects of acute drug treatments on baseline respiratory system mechanics were assessed using a two-tailed paired t-test. A value of P<0.05 was considered significant.
For these experiments, salbutamol was used for chronic administration at 0.5 mg/kg/day with a minipump and for acute administration at 0.15 mg/kg by i.v. bolus 15 minutes prior to challenge. Alprenolol was used at a high dose of 7200 ppm in chow or at a low dose of 720 ppm in chow. Carvedilol was used at a high dose of 2400 ppm in chow or at a low dose of 720 ppm in chow.

β2-adrenergic receptor [2] = biological target: β2-adrenergic receptor (Mus musculus, UniProt P18762); format: binding, mice
Chain of β2-adrenergic receptor (Mus musculus, UniProt P18762) (P18762 whole entry): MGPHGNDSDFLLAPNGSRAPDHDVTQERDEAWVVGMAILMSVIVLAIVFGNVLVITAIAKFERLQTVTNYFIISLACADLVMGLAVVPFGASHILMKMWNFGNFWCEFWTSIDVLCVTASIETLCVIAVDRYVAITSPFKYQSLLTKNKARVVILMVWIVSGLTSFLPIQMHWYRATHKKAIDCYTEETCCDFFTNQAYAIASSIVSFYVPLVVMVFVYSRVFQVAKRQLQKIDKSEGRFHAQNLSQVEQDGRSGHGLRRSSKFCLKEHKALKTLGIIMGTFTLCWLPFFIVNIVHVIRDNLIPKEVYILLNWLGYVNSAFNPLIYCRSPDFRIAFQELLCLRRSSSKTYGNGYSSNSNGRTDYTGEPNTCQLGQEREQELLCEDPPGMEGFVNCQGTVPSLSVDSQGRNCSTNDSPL
Experimental: (§1) β2-adrenergic receptor numbers were measured in asthmatic mice as follows. […] Mice were sacrificed and lung membranes were isolated as follows. Frozen lung tissue was homogenized in an ice-cold buffer containing 0.32 M sucrose and 25 mM Tris (pH 7.4) using a polytron (Pro 200, Pro Scientific, Inc.). The homogenate was centrifuged at 1000×g for 10 min at 4° C. The resulting supernatant was centrifuged at 40,000×g for 20 min at 4° C. The pellet was suspended in an ice-cold 25 mM Tris-HCl buffer (pH 7.4) and centrifuged at 40,000×g for 20 min at 4° C. The final pellet was suspended in 200 μL of 25 mM Tris-HCl (pH 7.4); membrane protein concentration was determined by BCA protein assay kit. […] The incubation was done at 37° C. for 2 h and terminated by rapid vacuum filtration through glass fiber filters. The filters were washed three times with 250 μL of cold wash buffer (25 mM Tris-HCl, pH 7.4) and the radioactivity determined in a counter. […] Receptor densities are expressed as femtomoles of sites per milligram of protein. Bmax is determined by nonlinear regression of the saturation binding curves.

β2-adrenergic receptor [3] = format: binding, mice; settings: 2 days of administration
Experimental: as §1

asthmatic mice [4] = test: Airway hyperresponsiveness, combination of carvedilol and salbutamol vs carvedilol monotherapy; format: in vivo, Balb/cJ mice; settings: 28 days treatment; highest dose of methacholine
Experimental: Mice (Balb/cJ) aged 6 weeks were housed under specific pathogen-free conditions and fed a chicken ovalbumin-free diet. Mice were systemically sensitized with ovalbumin adsorbed to aluminum hydroxide. Mice were treated as follows: CAR/SAL 28D=for 28 days mice (n=6-12) were administered carvedilol (2400 ppm in animal chow) and salbutamol (subcutaneous delivery of 0.5 mg/kg/day in an Alzet #2400 osmotic minipump); NTX S/C=mice (n=6-12) no drug treatment for 28 days; CTRL=mice (n=6-12) no drug treatment for 28 days, not subsequently challenged; CARHD 28D=for 28 days mice (n=6-12) were administered carvedilol only (2400 ppm in animal chow); CARHD 28D SAL AC=for 28 days mice (n=6-12) were administered carvedilol (2400 ppm in animal chow) and 15 minutes prior to measuring airway hyperresponsiveness, salbutamol was administered at a dose of […].
To measure airway hyperresponsiveness after 28 days, all mice except the CTRL (control) mice were challenged with ovalbumin and then all mice were anesthetized, tracheotomized, and connected to a Flexivent small animal ventilator to measure airway resistance (Raw) by the forced oscillation technique. To induce airway constriction, a solution containing 150 μg/mL of methacholine was infused using a syringe infusion pump. The methacholine infusion was started at 0.008 mL/min and its rate was doubled stepwise up to a maximum […]. […]

asthmatic mice [5] = test: BALF cell number and type (Example 11); format: in vivo; settings: vs nontreated asthmatic mice
Text: The same mice as described in Example 1 underwent bronchoalveolar lavage (BAL) to determine the total number and type of immune system cells in the lung. BAL Fluid (BALF) was irrigated and collected from the lungs of mice as previously described (Evans K L, Bond R A, Corry […]. Frequency dependence of respiratory system mechanics during induced constriction in a murine model of asthma. J Appl Physiol. 2003 January;94(1):245-52). […] The number of neutrophils was increased in nontreated asthmatic mice compared to mice that served as controls for chronic beta-blocker treatments. In comparison to their notable effects on airway responsiveness, the β-AR ligands tested had very little effect on BALF cellularity. […] FIG. 12 has 3 panels of cell number and type of cells from the bronchoalveolar lavage fluid of asthmatic mice treated acutely or chronically with beta adrenergic ligands. Cells were identified as eosinophils (black bars), macrophages (hatched bars), neutrophils (grey bars), and lymphocytes (white bars) by standard morphologic criteria. At least 200 cells were counted per cytospin preparation, and the absolute number of each cell type was calculated based on the volume of fluid recovered from the lavage. […] Data are expressed as mean ±SEM and are representative of 6-25 animals per group. #P<0.05 compared to NTX, *P<0.05 compared to control (ANOVA).

[6] = test system: tracheas from asthmatic mice; settings: chronic treatment of asthmatic mice, excised tracheas; cited from earlier work
patients with CHF = settings: cited from earlier work

## COc1ccccc1OCCNCC(O)COc1cccc2[nH]c3ccccc3c12 (stereo not shown) [carvedilol]
Asthmatic mice [1]; 15 minutes of administration
  Decreased Raw: no
Asthmatic mice [1]; 2 days of administration
  Decreased Raw: no
Asthmatic mice [1]; 28 days of administration
  Decreased Raw: yes
Asthmatic mice [1]; asthmatic mice, acute: single intravenous bolus 15 minutes before methacholine
  airway responsiveness to methacholine provocation (Raw): enhanced the airway responsiveness
Asthmatic mice [1]; asthmatic mice, chronic administration
  sensitivity of the responsiveness to methacholine: shifts the sensitivity of the responsiveness to methacholine to lower concentrations
Asthmatic mice [1]; asthmatic mice, chronic administration for 28 days
  airway responsiveness to methacholine provocation (Raw): does reduce airway hyperresponsiveness; also recorded: reduced the responsiveness of asthmatic mice to methacholine provocation
Asthmatic mice [1]; chronic administration, low and high doses in chow (FIGS. 8D-8G)
  protection from airway hyperresponsiveness: providing protection from airway hyperresponsiveness
β2-adrenergic receptor [2]; 15 Minutes drug treatment, lung membranes of asthmatic mice, mean±SEM
  Bmax: 86.3 ± 19.42 femtomoles of sites per milligram of protein
β2-adrenergic receptor [2]; 28 Days drug treatment, lung membranes of asthmatic mice, mean±SEM
  βmax: 904.1 ± 43.46 femtomoles of sites per milligram of protein
β2-adrenergic receptor [2]; 15 minutes of administration
  Increased β2AR density: no
β2-adrenergic receptor [2]; 28 days of administration
  Increased β2AR density: showed an increase in receptor density at 28 days
β2-adrenergic receptor [2]; 28 days of administration, listed as Carvedilol
  Increased β2AR density: yes
β2-adrenergic receptor [2]; chronic administration
  increase of the level of β2-adrenergic receptors over the non-treated mice: over 10 fold
β2-adrenergic receptor [3]
  Increased β2AR density: no
Asthmatic mice [4]
  bronchoconstriction / airway hyperresponsiveness (Raw): higher bronchoconstriction than these treatments but less than the non-drug treated sensitized and challenged (NTX S/C) mice
Asthmatic mice [5]; acute treatment (15 minutes)
  BALF cellularity: had no effects on BALF cellularity
Asthmatic mice [5]; chronic treatment (28 days)
  BALF cellularity: had no effects on BALF cellularity
[6]
  effectiveness on tracheal contraction in response to methacholine (rank): followed by carvedilol
Patients with CHF
  clinical outcome in congestive heart failure: significant mortality reduction
